Data on 14 compounds can be found in BindingDB's records for doi:10.1016/j.bmcl.2020.126986 (Abbvie, 2020).

The EC50 is the concentration needed to bring the measured effect to its halfway point.

A short description of experiment [1]: Inhibition of NS5B polymerase in HCV genotype 1b Con1 infected in human HuH7 replicon cells assessed as inhibition of viral replication after 3 days by luciferase reporter gene assay. (A replicon is a self-replicating genome or part of one, used to study replication in cells.)
The nature of experiment [2]: Inhibition of NS5B polymerase in HCV genotype 1a H77 infected in human HuH7 replicon cells assessed as inhibition of viral replication after 3 days by luciferase reporter gene assay.

`CC(C)OC(=O)[C@H](C)N[P@](=O)(OC[C@H]1O[C@@H](n2ccc(=O)[nH]c2=O)[C@](Cl)(Br)[C@@H]1O)Oc1ccccc1`: the EC50 is 0.147 µM in experiment [1] and 0.114 µM in experiment [2].

Turning to `CC(C)OC(=O)[C@H](C)N[P@@](=O)(OC[C@H]1O[C@@H](n2ccc(=O)[nH]c2=O)[C@](Cl)(Br)[C@@H]1O)Oc1ccccc1`, the EC50 in experiment [1] was 0.515 µM; in experiment [2], 0.415 µM.

Turning to `CC(C)OC(=O)[C@H](C)N[P@](=O)(OC[C@H]1O[C@@H](n2ccc(=O)[nH]c2=O)[C@](Cl)(Br)[C@@H]1OC(=O)[C@@H](N)C(C)C)Oc1ccccc1`, the concentration for a half-maximal effect (EC50) in experiment [1] stood at 0.167 µM; in experiment [2], 0.156 µM.

`CC(C)OC(=O)[C@H](C)N[P@](=O)(OC[C@H]1O[C@@H](n2ccc(=O)[nH]c2=O)[C@](Cl)(Br)[C@@H]1O)Oc1cccc2ccccc12`: the EC50 in experiment [1] worked out at 0.139 µM; in experiment [2] it was 0.106 µM.

Consider `CC(C)OC(=O)[C@H](C)N[P@](=O)(OC[C@H]1O[C@@H](n2ccc(=O)[nH]c2=O)[C@](Cl)(Br)[C@@H]1OC(=O)[C@@H](N)C(C)C)Oc1cccc2ccccc12`, for which the EC50 stood at 0.099 µM in experiment [1] and 0.094 µM in experiment [2].

With `COc1cccc(O[P@](=O)(N[C@@H](C)C(=O)OC(C)C)OC[C@H]2O[C@@H](n3ccc(=O)[nH]c3=O)[C@](Cl)(Br)[C@@H]2O)c1`, the EC50 worked out at 0.127 µM in experiment [1] and 0.098 µM in experiment [2].

Turning to `CCOC(=O)[C@H](C)N[P@](=O)(OC[C@H]1O[C@@H](n2ccc(=O)[nH]c2=O)[C@](Cl)(Br)[C@@H]1O)Oc1ccccc1`, the concentration giving a half-maximal response (EC50) in experiment [1] was 0.301 µM; in experiment [2], 0.298 µM.

Turning to `CCOC(=O)[C@H](C)N[P@@](=O)(OC[C@H]1O[C@@H](n2ccc(=O)[nH]c2=O)[C@](Cl)(Br)[C@@H]1O)Oc1ccccc1`, the concentration giving a half-maximal response (EC50) was determined as 1.19 µM in experiment [1] and 1.21 µM in experiment [2].

On to `COCC(C)OC(=O)[C@H](C)NP(=O)(OC[C@H]1O[C@@H](n2ccc(=O)[nH]c2=O)[C@](Cl)(Br)[C@@H]1O)Oc1ccccc1` (stereo partly drawn), for which the concentration giving a half-maximal response (EC50) in experiment [1] was 0.387 µM; in experiment [2] it was 0.414 µM.

In the case of `CC(C)C(=O)OC[C@H](C)NP(=O)(OC[C@H]1O[C@@H](n2ccc(=O)[nH]c2=O)[C@](Cl)(Br)[C@@H]1O)Oc1ccccc1` (stereo partly drawn), the EC50 was 0.455 µM in experiment [1] and 0.317 µM in experiment [2].

As to `COCC(C)C(=O)OC[C@H](C)NP(=O)(OC[C@H]1O[C@@H](n2ccc(=O)[nH]c2=O)[C@](Cl)(Br)[C@@H]1O)Oc1ccccc1` (stereo partly drawn), the concentration for a half-maximal effect (EC50) in experiment [1] worked out at 0.522 µM; in experiment [2], 0.592 µM.

On to `COCC(=O)OC[C@H](C)NP(=O)(OC[C@H]1O[C@@H](n2ccc(=O)[nH]c2=O)[C@](Cl)(Br)[C@@H]1O)Oc1ccccc1` (stereo partly drawn), for which the values for the EC50 in experiment [1] and in experiment [2] were 3.04 µM and 2.5 µM, respectively.

For `CC(C)OC(=O)C(C)(C)NP(=O)(OC[C@H]1O[C@@H](n2ccc(=O)[nH]c2=O)[C@](Cl)(Br)[C@@H]1O)Oc1ccccc1` (stereo partly drawn), the concentration giving a half-maximal response (EC50) was found to be 1.38 µM in experiment [1] and 1.09 µM in experiment [2].

Turning to `CCOC(=O)C(C)(C)NP(=O)(OC[C@H]1O[C@@H](n2ccc(=O)[nH]c2=O)[C@](Cl)(Br)[C@@H]1O)Oc1ccccc1` (stereo partly drawn), the concentration giving a half-maximal response (EC50) in experiment [1] stood at 1.17 µM; in experiment [2], 0.96 µM.
